Data: patent US20220073541A1, “SILICON ION COMPLEX ORGANIZED WITH CARBOXYLIC ACID, METHOD FOR MANUFACTURING COMPLEX, AND PRODUCT USING SAME” (KOREA NEW TECHNOLOGY CO.,LTD., priority 2019, published 2022)

Test: Metasilicate dissolution experiment (gastric acid conditions, pH 1.5)
Format: physicochemical
Procedure: A dissolution experiment was performed using sodium metasilicate nonahydrate (Na2SiO3.9H2O).
(2) The pH of the solution was lowered to pH 1.5 using 37% hydrochloric acid and measured again.
(1) 150 ml of water was added in a 250 ml beaker, adjusted in pH to a value of 1.5 with 37% hydrochloric acid to meet the standards for gastric acid of the human body, and combined with another water to a volume of 250 ml.
(2) 1 g of metasilicate nonahydrate (Na2SiO3.9H2O) was added to the solution of step (1).

Row | Compound | dissolution of silicate added to acidic water (1 g added to 250 ml water at pH 1.5 (37% hydrochloric acid)) | pH of solution in pure water (1 g in 500 ml pure water) | behaviour of dissolved silicate after lowering pH (1 g in 500 ml pure water, pH lowered to 1.5 using 37% hydrochloric acid)
1 | O.O.O.O.O.O.O.O.O.O=[Si]([O-])[O-].[Na+].[Na+] [Comparative Example 2, metasilicate nonahydrate (Na2SiO3.9H2O)] | precipitated rather than dissolved | – | –
2 | O.O.O.O.O.O.O.O.O.O=[Si]([O-])[O-].[Na+].[Na+] [Comparative Example 1, sodium metasilicate nonahydrate (Na2SiO3.9H2O)] | – | 12.23 | gelled while agglomerating
